Results: article PMC9186412, “Rational Framework for the Design of Trp- and Arg-Rich Peptide Antibiotics Against Multidrug-Resistant Bacteria” (Frontiers in Microbiology, 2022)
Where a SMILES comes first, the peptide text is derived from it. Bridges are numbered along the chain shown (N, C = ends). [ ]: non-standard residue; d: D form. The star is where a group is joined. X1 = CC[C@H](C)CCCCC(=O)*; Dab = NCC[C@H](N)C(=O)O

Columns and labels:
[1] = test system: ESKAPE pathogens and Escherichia coli; settings: initial test strains; MHB2
Procedure: Bacteria were incubated with each of the indicated peptides in MHB2. […] To assess bactericidal properties of the peptide, the assay was modified by using 15% fetal bovine serum (FBS, for a more physiologically relevant test condition) mixed with 25% MHB2 and 60% PBS. […] Data were analyzed using GraphPad Prism software.

[2] = test system: E. Faecium; test: microbe, parasite or virus in culture; assay type: cell-based, Enterococcus Facium
Procedure: (§1) Bacterial clinical isolates, used for initial screening and in previous studies ([Deslouches et al., 2013]; [Lin et al., 2018]), were anonymously provided by the clinical microbiology laboratory of the University of Pittsburgh medical Center. The panel used for secondary screening was from [CDC (2013)] (Supplementary Table 3), with resistance profiles data. Bacteria are stored in lock-secured –80°C freezer and typically retrieved by obtaining single colonies on agar plates prior for subsequent liquid broth cultures. Suspensions of test bacteria were prepared from log phase of growth by diluting overnight cultures at 1:100 with fresh cation-adjusted MHB (MHB2, Millipore Sigma, United States) and incubating for additional 3–4 h. Bacteria were spun at 3,000 × g for 10 min and the pellet resuspended in test condition media (Millipore Sigma, United States) to determine bacterial turbidity using a Den-1B densitometer (Grant Instruments, United States) at 0.5 McFarland (unit of bacterial density) corresponding to […].
(§2) To examine antibacterial activity, we used minor modifications of a standard growth inhibition assay endorsed by the Clinical and Laboratory Standards Institute (CLSI), as previously described ([Deslouches et al., 2013]). Bacteria were incubated with each of the indicated peptides in MHB2. The bacterial cells were kept in an incubator for 18 h at 37°C, which is linked to a robotic system that feeds a plate reader every hour with one of 8 × 96-well plates. This set-up allows the collection of growth kinetic data at A 570 (absorbance at 570 nm) to examine growth inhibition in real time (BioTek Instruments, United States). […] The assays are typically repeated a second time. If the MIC is different, a third experimental trial is performed to confirm the MIC. To assess bactericidal properties of the peptide, the assay was modified by using 15% fetal bovine serum (FBS, for a more physiologically relevant test condition) mixed with 25% MHB2 and 60% PBS. Bacterial cells (colony forming unit/mL or CFU/mL) were enumerated after incubating treated bacteria for 3 h and plating serially diluted samples on broth agar medium at 37°C overnight. Minimum bactericidal concentration (MBC) was determined as the peptide concentration at which complete bacterial killing was observed. […] Data were analyzed using GraphPad Prism software.

[3] = test system: S. aureus; test: microbe, parasite or virus in culture; assay type: cell-based
Procedure: as §1, §2

CC[C@H](C)CCCCC(=O)N[C@@H](CCN)C(=O)N[C@H](C(=O)N[C@@H](CCN)C(=O)N[C@H]1CCNC(=O)[C@H]([C@@H](C)O)NC(=O)[C@H](CCN)NC(=O)[C@H](CCN)NC(=O)[C@H](CC(C)C)NC(=O)[C@@H](CC(C)C)NC(=O)[C@H](CCN)NC1=O)[C@@H](C)O [Colistin, reference compound] (X1-[Dab]T[Dab][Dab][Dab][dL]L[Dab][Dab]T; lactam 4-C (inferred); N-terminus assumed)
activity against the GPB strains [1]: inactive
MIC ([2]; strain EF500, CDC clinical strain, confirmed by a second or third experimental trial): >16 µM
MIC ([2]; strain EF671, CDC clinical strain, confirmed by a second or third experimental trial): >16 µM
MIC ([2]; strain EF672, CDC clinical strain, confirmed by a second or third experimental trial): >16 µM
MIC ([2]; strain EF673, CDC clinical strain, confirmed by a second or third experimental trial): >16 µM
MIC ([2]; strain EF23614, UPMC, MHB2, 18 h, 37°C): >16 µM
MIC ([2]; strain EF26215, UPMC, MHB2, 18 h, 37°C): >16 µM
MIC ([2]; strain EF26692, UPMC, MHB2, 18 h, 37°C): >16 µM
MIC ([3]; strain SA461, CDC clinical strain, confirmed by a second or third experimental trial): >16 µM
MIC ([3]; strain SA462, CDC clinical strain, confirmed by a second or third experimental trial): >16 µM
MIC ([3]; strain SA463, CDC clinical strain, confirmed by a second or third experimental trial): >16 µM
MIC ([3]; strain SA561, CDC clinical strain, confirmed by a second or third experimental trial): >16 µM
MIC ([3]; strain SA12212, UPMC, MHB2, 18 h, 37°C): >16 µM
MIC ([3]; strain SA18710, UPMC, MHB2, 18 h, 37°C): >16 µM
MIC ([3]; strain SA49775, MHB2, 18 h, 37°C): >16 µM
MIC ([3]; strain SA-US300, MHB2, 18 h, 37°C): >16 µM
